Measured values: patent US20240050409A1, “Methods and Compositions for Treating Psychotic Disorders” (SOUND PHARMACEUTICALS INCORPORATED, priority 2014, published 2024)

System: 3-NT levels in PFC of NVHL rats
Assay: 3-Nitrotyrosine (3-NT) labeling in adult PFC of NVHL rats
Format: in vivo, Sprague-Dawley rats
Settings: P61 NVHL rats, juvenile treatment
Excerpt: To assess oxidative stress, DNA oxidation with 8-oxo-7,8-dihydro-20-deoxyguanine (8-oxo-dG) labeling was quantified. […] 3-NT indicates nitration of proteins due to oxidative and nitrosative stress (Radi, 2004), and its increase in NVHL rats was prevented by NAC treatment during development (as shown in FIGS. 9A and 9B). […] A possible explanation for the levels of oxidative stress detected in the adult PFC following an NVHL is the reduced glutamatergic input from ventral hippocampus during development, as blocking NMDA receptors induces oxidative stress in PVI (Behrens et al., 2007).
Antioxidant pretreatment regimen: NAC (BioAdvantexPharma, Mississauga, Ontario, Canada) was administered in the drinking water at 900 mg/l. NAC treatment started at P5 or at P35, and previous work in mice has shown that NAC consumed by the dam is transmitted to the pups through her milk (das Neves Duarte et al., 2012). NAC treatment ended at P50. Fresh solutions were prepared every 2-3 days. Ebselen (Sound Pharmaceuticals Inc., Seattle, WA) was administered i.p. 5 days a week starting at P35 until the day of PPI testing (P60). Stock ebselen solution (20 mg/ml DMSO, frozen aliquots) was diluted 1:5 in sterile water and administered at a dose of 10 mg/kg. Control animals received an equivalent concentration of DMSO diluted 1:5 in water. […]

**Q.** Which “effect on increase in 3-NT labeling in PFC” value does the source give for `CC(=O)N[C@@H](CS)C(=O)O` [NAC, N-acetyl cysteine] here?
**A.** prevented
